According to EP1004309A1, “ISRAPAFANT-CONTAINING WATER-BASE PREPARATIONS” (Senju Pharmaceutical Co., Ltd., priority 1997, dated 1998):
Values after ≈ are worked out from the molar mass of the structure shown. “Also recorded” adds a separate entry of the source. Each block holds one compound with its values, some of them ahead of it.

Legend:
[1] = Dissolution test: solubility of israpafant in buffers, by HPLC; type: physicochemical; details: 0.1% acetate, phosphate and borate buffers, 25 °C, aqueous buffer, thermodynamic from solid; each buffer (pH 4, 5, 6, 7, 8 and 9); below detection limit by HPLC
Experimental: Israpafant (manufactured by Yoshitomi Pharmaceutical Industries, Ltd.) was suspended in 0.1% acetate buffer (pH 4, 5, 6), phosphate buffer (pH 6, 7, 8) and borate buffer (pH 8, 9) in a concentration of 0.1% (w/v%, hereinafter the same). Each suspension was filled in a glass ampoule by 5 ml and shaken at 25°C overnight (ca. 15 hours). After passing through a 0.45 µm membrane filter, the solubility of israpafant was measured by HPLC.
(§1) • column: YMC AM-302 (4.6×150 mm) • mobile phase: acetonitrile:0.1M ammonium acetate-87:13 • detection: UV 244 nm • column temperature:35°C • flow rate: 0.7 ml/min • internal standard:1,3,5-triphenylbenzene

Solubility in water = type: physicochemical; details: water at 25°C
[2] = test system: guinea pig active sensitization allergic conjunctivitis; experiment: Suppressive effect against eosinophil infiltration into conjunctiva (late phase reaction); type: in vivo
Experimental: (§2) Male Hartley guinea pigs weighing about 300 g purchased from Japan SLC. Ltd. were used. These animals had free access to a solid feed (γ ray irradiated feed LRC4, ORIENTAL YEAST CO., LTD.) and tap water, and were bred in a breeding chamber set to a temperature 23 ±2°C and humidity 55±15%.
(§3) Israpafant (manufactured by Yoshitomi Pharmaceutical Industries, Ltd.) was suspended in a vehicle (pH 5) shown below at a concentration of 1% to give an eye drop suspension. In addition, a suspension of israpafant in 0.5% CMC at 10 mg/ml was prepared for oral administration. As a control, physiological saline was used.
In the same manner as in 1), sensitization and induction by first challenge and second challenge were performed.
The drug was evaluated by removing the eye ball at 6 hours after the second challenge, preparing an optical microscopic specimen according to a conventional method, staining eosinophils by Luna staining, and counting and averaging the number of eosinophils infiltrated into conjunctiva with regard to each of 6 visible areas (one visible area being 0.04 mm^2) of the vicinity of conjunctival lymphoid tissue. The drug was administered in the same manner as in 1).
(§4) • physiological saline (control group) • 1.0% israpafant (instillation group) • 10 mg/kg israpafant p.o. (oral group) • 1 mg/kg mepyramine i.v. (intravenous injection group) • 1.0% israpafant + 1 mg/kg mepyramine i.v. (concurrent instillation group) • 10 mg/kg israpafant p.o.+1 mg/kg mepyramine i.v. (concurrent instillation group)

rat PAF conjunctivitis = experiment: Rat PAF conjunctivitis, conjunctival dye-leakage after eye drop; type: in vivo; details: for inhibition: dye leakage; for amount of dye leakage: instillation 5 µl at 1, 2 hours before PAF, mean±standard error
Experimental: Male Wistar rats weighing about 130 g purchased from Clea Japan, Inc. were used. They were bred at temperature 23±2°C and humidity 55±15%.
Israpafant was suspended at 0.03, 0.1, 0.3 and 1.0%. Physiological saline was used for the control group.
The formulation of the vehicle for an israpafant eye drop was as shown below, wherein the pH of the eye drop at each concentration was 7.0.
PAF diluted to 4 µg/ml was administered to the upper subconjunctiva of the rat by 25 µl and at the same time, 0.5% Evans' blue (0.5 ml) was intravenously administered. Thirty minutes later, the dye-leakage part of the conjunctiva was excised and the dye was extracted with formamide, after which absorbance (625 nm) was measured. The test drug was administered by instillation (5 µl) to the eye at 1, 2 hours before subconjunctival induction of PAF.

[3] = test system: guinea pig active sensitization allergic conjunctivitis; experiment: Suppressive effect against promotion of conjunctival vascular permeability (early phase reaction), dye-leakage; type: in vivo; details: 30 minutes after second challenge
Experimental: as §2, §3
Guinea pigs were sensitized with a dispersion of 10 µg ovalbumin (OA) and 30 mg aluminum hydroxide gel by peritoneal administration. At 14 days after the sensitization, a 2.5% OA antigen solution was instilled into the both eyes by 10 µl to induce allergic conjunctivitis (first challenge). At 20 minutes after the last challenge, conjunctivitis signs were observed and the animals were grouped in such a manner that the severity of the condition was equalized from the degrees of chemosis, conjunctival injection and tearing.
The evaluation of a drug included the following steps. At 24 hours from the first challenge, 10 mg/kg Evans' blue was intravenously administered, and a 2.5% OA antigen solution was instilled into the both eyes by 10 µl to again induce conjunctivitis (the second challenge). Thirty minutes later, conjunctival dye-leakage part was excised, the parts of the both eyes were combined and the amount of the leaked dye was measured. The drug was instilled into the both eyes by 10 µl at 3, 2, 1 hour before the second challenge in the case of administration by instillation. In the case of an oral administration, 10 mg/kg was administered once at 1 hour before the second challenge. For suppression of histamine reaction, 1 mg/kg of mepyramine was intravenously administered one minute before.
as §4

[4] = test system: guinea pig active sensitization allergic conjunctivitis; experiment: Suppressive effect against immediate allergic conjunctivitis signs (early phase reaction), total score; type: in vivo; details: 1% israpafant instillation 10 µl one eye at 2, 4, 8 hours after first challenge and 3, 2, 1 hour before second challenge; 20 minutes after second challenge; versus physiological saline control
Experimental: as §2, §3
In the same manner as in 1), sensitization and induction by the first challenge and the second challenge were performed. […]

[5] = Dissolution test: solubility of israpafant in aqueous solutions containing additives, by HPLC; type: physicochemical; details: for solubility: 0.1% phosphate buffer with dissolved additive, 25 °C, pH 7, aqueous with cosolvent or surfactant or cyclodextrin, thermodynamic from solid
Experimental: In 0.1% phosphate buffer (pH 7) were dissolved the additives shown in Table 2 in a proportion of 0.5% (0.5% and 4% in the sole case of polysorbate). In the same manner as above, israpafant was suspended and dissolved, after which the solubility of israpafant was measured by HPLC.
as §1

solubility [1]: < 0.05 µg/mL | solubility in water (Solubility in water): less than 0.01 w/v% | solubility ([5]; 0.5% BAK in 0.1% phosphate buffer (pH 7)): 99 µg/mL (≈ 202 µM) | solubility ([5]; 0.5% HCO60 in 0.1% phosphate buffer (pH 7)): 47.3 µg/mL (≈ 96.7 µM) | solubility ([5]; 0.5% HPMC in 0.1% phosphate buffer (pH 7)): 0.6 µg/mL (≈ 1.23 µM) | solubility ([5]; 0.5% PVA(EG40) in 0.1% phosphate buffer (pH 7)): 0.4 µg/mL (≈ 0.818 µM) | solubility ([5]; 0.5% SDS in 0.1% phosphate buffer (pH 7)): 1060 µg/mL (≈ 2160 µM) | solubility ([5]; 0.5% Tyloxapol in 0.1% phosphate buffer (pH 7)): 29.5 µg/mL (≈ 60.3 µM) | solubility ([5]; 0.5% polysorbate 80 in 0.1% phosphate buffer (pH 7)): 66.9 µg/mL (≈ 137 µM) | solubility ([5]; polysorbate 80 (4% aq. solution) in 0.1% phosphate buffer (pH 7)): 581 µg/mL (≈ 1190 µM) | dissolution (in words) ([5]; 0.5% aqueous sodium dodecylsulfate solution): dissolved extremely well | dissolution (in words) ([5]; 4% aqueous polysorbate solution): dissolved extremely well | dissolution (in words) ([5]; aqueous solution containing a water soluble polymer or cyclodextrin): did not dissolve | dissolution (in words) ([5]; aqueous surfactant solution): dissolved well
Compound: Cc1nnc2n1-c1sc(CCc3ccc(CC(C)C)cc3)cc1C(c1ccccc1Cl)=NC2C (stereo not drawn) [israpafant, 4-(2-Chlorophenyl)-2-[2-(4-isobutylphenyl)ethyl]-6,9-dimethyl-6H-thieno[3,2-f][1,2,4]triazolo[4,3-a][1,4]diazepine]
suppressive effect on eosinophil infiltration (in words) ([2]; 10 mg/kg israpafant p.o. (oral group), 6 hours after second challenge): no suppressive effect; also recorded: no effect was found; also recorded: no effect was observed | suppressive effect on eosinophil infiltration (in words) ([2]; 10 mg/kg israpafant p.o. + 1 mg/kg mepyramine i.v. (concurrent oral administration group), almost the same as mepyramine alone): suppressive effect | suppressive effect on eosinophil infiltration (in words) ([2]; 1.0% israpafant instillation + 1 mg/kg mepyramine i.v. (concurrent instillation group), almost the same as mepyramine alone): suppressive effect | eosinophil infiltration count ([2]; 1.0% israpafant instillation, 6 hours after second challenge, control 95.3): 71.8 cell/0.04 mm^2 | inhibition (rat PAF conjunctivitis; eye drop suspension 0.03% (dose 3 µg)): 19.1% | inhibition (rat PAF conjunctivitis; eye drop suspension 0.1% (dose 10 µg)): 29.6% | inhibition (rat PAF conjunctivitis; eye drop suspension 0.3% (dose 30 µg)): 41.6% | inhibition (rat PAF conjunctivitis; eye drop suspension 1.0% (dose 100 µg)): 53.2% | amount of dye leakage (rat PAF conjunctivitis; eye drop suspension 0.03% (dose 3 µg), saline 40.03±2.57): 32.29±3.31 µg/site | amount of dye leakage (rat PAF conjunctivitis; eye drop suspension 0.1% (dose 10 µg), p<0.01): 28.17±1.42 µg/site | amount of dye leakage (rat PAF conjunctivitis; eye drop suspension 0.3% (dose 30 µg), p<0.01): 23.37±2.56 µg/site | amount of dye leakage (rat PAF conjunctivitis; eye drop suspension 1.0% (dose 100 µg), p<0.01): 18.74±2.20 µg/site | dye-leakage ([3]; 10 mg/kg israpafant p.o. + 1 mg/kg mepyramine i.v. (oral concurrent group)): 10.1 µg/two eye balls | dye-leakage ([3]; 10 mg/kg israpafant p.o. once 1 hour before second challenge, control 34.5 µg): 25.3 µg/two eye balls | dye-leakage ([3]; 1.0% israpafant eye drop suspension, instillation 10 µl both eyes at 3, 2, 1 hour before second challenge, control 34.5 µg): 24.7 µg/two eye balls | dye-leakage ([3]; 1.0% israpafant instillation + 1 mg/kg mepyramine i.v. (concurrent instillation group)): 11.0 µg/two eye balls | total score of conjunctivitis signs [4]: significant decrease

Compound: COc1ccc(CN(CCN(C)C)c2ccccn2)cc1 [mepyramine, reference compound]
suppressive effect on eosinophil infiltration (in words) ([2]; 1 mg/kg mepyramine i.v., 6 hours after second challenge): suppressive effect | dye-leakage ([3]; 1 mg/kg mepyramine i.v. one minute before, control 34.5 µg): 17.5 µg/two eye balls
